Experimental data as given in patent US5384119A, “Method of preventing neutrophil mediated connective tissue damage” (Merrell Dow Pharmaceuticals Inc., priority 1993, dated 1995).
Read-outs that look alike come from different tables or passages of the source.

Tests used:
elastase = target: T1, elastase (Homo sapiens, UniProt P08246); assay: Elastase cleavage of synthetic substrate N-methoxysuccinyl-Ala-Ala-Pro-Val-p-nitroanalide; format: biochemical; settings: 2 μg of elastase, FIG. 1, read-out: IC50 for the inhibition of elastase
T1 sequence (P08246 30-247 limits assumed): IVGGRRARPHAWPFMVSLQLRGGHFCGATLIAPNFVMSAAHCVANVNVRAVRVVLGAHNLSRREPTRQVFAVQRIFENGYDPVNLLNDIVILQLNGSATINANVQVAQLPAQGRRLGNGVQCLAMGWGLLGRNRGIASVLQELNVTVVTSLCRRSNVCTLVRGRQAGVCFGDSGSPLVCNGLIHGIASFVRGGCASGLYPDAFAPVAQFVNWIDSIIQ
Description: (§1) Elastase activity is assayed using the specific substrate, N-methoxysuccinyl-Ala-Ala-Pro-Val-p-nitroanalide, and cathepsin G activity was measured using N-succinyl-Ala-Pro-Phe-p-nitroanalide. The assay buffer, 0.1M HEPES with 0.5M NaCl and 0.1% Brij-35, is used to dilute the elastase substrate to a final concentration of 0.2 mM and the cathepsin G substrate to 1 mM. The appropriate substrate in 2 ml of assay buffer is incubated at 37° C. in a heated spectrophotometer cell and the reaction is started by the addition of enzyme. In experiments where inhibitors were tested, the inhibitors were incubated with the enzyme for 5 min before the addition of substrate. […] was continuously monitored at 410 nm using a diode array spectrophotometer. Kinetic constants were determined using the kinetics software of the spectrophotometer.
(§2) The ability of several sulfated polymers to inhibit elastase and cathepsin G degradation of their respective substrates was examined. MDL-101,028, a compound falling within the scope of the claimed invention, where the value of n is 6, and 4,4'-Diisothiocyanatostilbene-2,2'-disulfonic acid, internally identified as MDL-101,114 (DIDS) inhibited both elastase and cathepsin G in a dose-dependent manner.

cathepsin G [1] = target: T2, cathepsin G (Homo sapiens, UniProt P08311); assay: Cathepsin G cleavage of synthetic substrate N-succinyl-Ala-Pro-Phe-p-nitroanalide; format: biochemical; settings: 2 micrograms of cathepsin G, FIG. 2, read-out: IC50 for the inhibition of cathepsin G
T2 construct: Both purified human neutrophil elastase and cathepsin G degrade CPG; from tissue; host or cells: human neutrophils
T2 sequence (P08311 21-244 limits assumed): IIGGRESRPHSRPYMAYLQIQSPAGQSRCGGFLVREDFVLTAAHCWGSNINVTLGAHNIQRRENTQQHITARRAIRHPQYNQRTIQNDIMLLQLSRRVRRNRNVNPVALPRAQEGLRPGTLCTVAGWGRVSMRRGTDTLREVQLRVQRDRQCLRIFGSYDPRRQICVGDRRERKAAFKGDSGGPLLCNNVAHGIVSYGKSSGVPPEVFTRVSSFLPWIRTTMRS
Description: as §1, §2

[2] = target: T3, purified human neutrophil elastase (Homo sapiens, UniProt P08246); assay: Elastase mediated degradation of 35S-labeled cartilage matrix proteoglycan (CPG); format: biochemical; settings: cartilage discs, 4 hours at 37° C., FIG. 3
T3 construct: Both purified human neutrophil elastase and cathepsin G degrade CPG; from tissue; host or cells: human neutrophils
T3 sequence (P08246 30-247 limits assumed): T1 sequence (P08246 30-247 limits assumed)
Description: (§3) Fresh bovine nasal septa were obtained from a local abattoir and 4 mm cartilage cylinders were prepared using a No. 2 cork borer. The cylinders were sliced into 1 mm discs. The top and bottom discs were discarded and the remaining cartilage discs were pooled, washed three times in HBSS and resuspended in Dulbecco's Modified Eagles Medium (DMEM) with antibiotics and supplements. The sulfated sugars that constitute the glycosaminoglycan side chains of cartilage proteoglycan were radiolabeled by the addition of 10 μCi/ml of Na2^35 SO4 followed by incubation overnight at 37° C. with gentle rocking. […]
(§4) The ability of neutrophil proteases to degrade connective tissue matrix was measured by incubating ^35 S-radiolabeled cartilage discs with neutrophil lysate, purified elastase or cathepsin G in serumless media for 4 hours at 37° C. and collecting the supernatants and counting the radiolabeled material in the supernatants and discs. The radioactivity remaining in the cartilage discs after removal of the supernatant was assayed by completely digesting the discs in 6M HCl at 100° C. for 1 hour, removing the HCl by vacuum evaporation and resuspending the dried material in 0.5 ml HBSS. Supernatants and processed discs were counted in a Beckman LS 3801 scintillation counter. The data were expressed as the percent at ^35 S label released into the supernatant. […]

cathepsin G [3] = target: T2, cathepsin G; assay: Cathepsin G mediated degradation of 35S-labeled cartilage matrix proteoglycan (CPG); format: biochemical; settings: cartilage discs, 4 hours at 37° C., FIG. 4
Description: as §3, §4

Human neutrophil lysate = Human neutrophil lysate mediated degradation of CPG; format: biochemical; settings: lysate 1:100, 4 hour at 37° C., FIG. 5
Description: Human neutrophil granule lysates were prepared by resuspending 2.5×10^8 in 4 ml of […] sucrose and sonicating for 30 seconds using a microtip probe. […] The neutrophil lysate was centrifuged at 1000×g for 10 min. at 4° C., the supernatant was collected and centrifuged at 30,000×g for 30 min. at 4° C. and the pellet containing neutrophil granules was resuspended in 2 ml of 0.05M sodium acetate buffer, pH 5.5, containing 1M NaCl and 0.1% Brij-35 and kept on ice for 30 min. with several brief sonications of approximately 30 seconds during the incubation period. […] The granule lysate was centrifuged at 30,000×g for 30 min. at 4° C. and the supernatant was collected, tested for elastase and cathepsin G content using synthetic substrates as described above, aliquoted and stored at […] until used.
Fresh bovine nasal septa were obtained from a local abattoir and 4 mm cartilage cylinders were prepared using a No. 2 cork borer. The cylinders were sliced into 1 mm discs. The top and bottom discs were discarded and the remaining cartilage discs were pooled, washed three times in HBSS and resuspended in Dulbecco's Modified Eagles Medium (DMEM) with antibiotics and supplements. […]
as §4

Human neutrophils [4] = assay: Neutrophil viability (trypan blue exclusion, lactic dehydrogenase release); format: cell-based
Description: (§5) Radiolabeled cartilage discs were placed into the wells of 96-well microtiter plates and overlayed with human neutrophils suspended in DMEM containing 10% FCS. The neutrophils were stimulated by the addition of 1 mg/ml of opsonized zymosan and incubated for 4 hours at 37° C. with 5% CO2. Connective tissue matrix degradation was quantitated by the amount of radiolabel released. In experiments using protease inhibitors, the inhibitors were added immediately after the neutrophils. The viability of the neutrophils incubated with the protease inhibitors was determined by assaying the supernatants for lactic dehydrogenase (LDH) and by neutrophil exclusion of trypan blue. In addition, the effect of protease inhibitors on primary granule enzyme secretion was monitored by measuring the release of myeloperoxidase.
(§6) The percentage of neutrophils stimulated with zymosan in media for 4 hours that excluded trypan blue was 85% compared to 77%-87% for neutrophils incubated with MDL-101,028 at doses of 4, 10, and 25 μM, respectively. This correlated with LDH release which was 9% for stimulated neutrophils treated with media, compared to 7-11% for neutrophils incubated with MDL-101,028 at concentrations of 4-25 μM.

Human neutrophils [5] = assay: Primary granule enzyme secretion (myeloperoxidase release) from neutrophils; format: cell-based; settings: stimulated neutrophils
Description: as §5, §6

[6] = tested on: human neutrophil elastase; assay: Elastase induced pulmonary hemorrhage in rats; format: in vivo, Male Sprague Dawley rats; settings: rat; for Inhibition of lung hemorrhage (hemoglobin in lavage fluid): 100 μg elastase, FIG. 7; for Inhibition of lung hemorrhage: intratracheal, FIG. 8
Description: Male Sprague Dawley rats were anesthetized with chloral hydrate (300 mg/kg) and either saline or human neutrophil elastase was administered intratracheally. Briefly, rats were placed on a surgical board, ventral side up, and their mouths held open using a rubber band placed over their incisors. The tongue was held to the side and 100 micro liters of elastase solution (1 mg/ml) was administered into the trachea with the aid of a bright light source and a 3 inch, 22 gauge blunt-end needle. One hour after elastase administration, the rats were sacrificed using CO2 and the trachea was surgically exposed and cannulated. The lungs were lavaged with 10 ml of saline and the hemoglobin content was-determined using the cyanmethemoglobin assay. In experiments where inhibitors were tested, the compounds were given intratracheally in 100 μl of saline at various times before elastase administration.
Intratracheal instillation of human leukocyte elastase produced acute lung injury as assessed by hemorrhage (FIG. 7). The hemorrhage was quantified by measuring the hemoglobin content of the pulmonary lavage fluid. […] When MDL-101,028 was administered intratracheally immediately before elastase (within 30 seconds) at doses of 280 μg, 700 μg, or 2800 μg, lung hemorrhage was inhibited by 48%, 90%, and 90% respectively (FIG. 7).
MDL-101,028 was administered to rats at various time intervals before instillation of elastase to determine the duration of action.

Row | SMILES | IC50 (elastase) [µM] | IC50 (cathepsin G [1]) [µM] | IC50 ([2]; read-out: IC50, elastase mediated cartilage degradation) [µM] | IC50 (cathepsin G [3]; read-out: IC50, cathepsin G mediated cartilage degradation) [µM] | IC50 ([2]; read-out: IC50, elastase mediated CPG degradation) [µM] | IC50 (cathepsin G [3]; read-out: IC50, cathepsin G mediated CPG degradation) [µM] | Inhibition of CPG degradation by neutrophil lysate (Human neutrophil lysate; 4 μmolar) [%] | Inhibition of CPG degradation by neutrophil lysate (Human neutrophil lysate; 10 μmolar) [%] | Inhibition of CPG degradation by neutrophil lysate (Human neutrophil lysate; 25 μmolar) [%] | LDH release (Human neutrophils [4]; concentrations of 4-25 μM, stimulated neutrophils (media control 9%), 240 min) | Percentage of neutrophils that excluded trypan blue (Human neutrophils [4]; doses of 4, 10, and 25 μM, zymosan stimulated, 4 hours (media control 85%)) | Viability of the neutrophils (Human neutrophils [4]; trypan blue exclusion and lactic dehydrogenase release) | Myeloperoxidase release from neutrophils (Human neutrophils [5]) | Inhibition of lung hemorrhage (hemoglobin in lavage fluid) ([6]; 280 μg intratracheally immediately before elastase (within 30 seconds)) [%] | Inhibition of lung hemorrhage (hemoglobin in lavage fluid) ([6]; 700 μg intratracheally immediately before elastase (within 30 seconds)) [%] | Inhibition of lung hemorrhage (hemoglobin in lavage fluid) ([6]; 2800 μg intratracheally immediately before elastase (within 30 seconds)) [%] | Inhibition of lung hemorrhage ([6]; administered 1 hour before elastase) [%] | Inhibition of lung hemorrhage ([6]; administered 2 hours before elastase) [%] | Inhibition of lung hemorrhage ([6]; administered 4 hours before elastase) [%] | Duration of action ([6]; intratracheal route)
1 | O=S(=O)(O)c1cc(N=C=S)ccc1C=Cc1ccc(N=C=S)cc1S(=O)(=O)O [DIDS, 4,4'-Diisothiocyanatostilbene-2,2'-disulfonic acid, reference compound] | 1.1 | 1.4 | 38 | 50 | – | – | – | – | – | – | – | – | – | – | – | – | – | – | – | –
2 | Cc1ccc(NC(=O)Nc2ccc(-c3ccc(NC(=O)Nc4ccc(-c5ccc(NC(=O)Nc6ccc(-c7ccc(NC(=O)Nc8ccc(-c9ccc(NC(=O)Nc%10ccc(-c%11ccc(NC(=O)Nc%12ccc(-c%13ccc(NC(=O)Nc%14ccc(C)cc%14)cc%13S(=O)(=O)O)c(S(=O)(=O)O)c%12)cc%11S(=O)(=O)O)c(S(=O)(=O)O)c%10)cc9S(=O)(=O)O)c(S(=O)(=O)O)c8)cc7S(=O)(=O)O)c(S(=O)(=O)O)c6)cc5S(=O)(=O)O)c(S(=O)(=O)O)c4)cc3S(=O)(=O)O)c(S(=O)(=O)O)c2)cc1 [MDL-101,028] | 0.04 | 0.08 | – | – | ~8 | ~9 | 54 | 70 | 79 | 7-11% | 77%-87% | not diminished | not inhibited | 48 | 90 | 90 | 61 | 63 | 20 | greater than two hours and less than four hours
